In patent US20120004244A1, “Bis Aromatic Compounds for Use as LTC4 Synthase Inhibitors” (BIOLIPOX AB, priority 2009, published 2012):

Target: T1, Recombinant human LTC4 synthase (Homo sapiens, UniProt Q16873)
T1 construct: made in house; host or cells: Pichia pastoris ('Piccia pastoralis' [sic])
T1 sequence (Q16873 1-150): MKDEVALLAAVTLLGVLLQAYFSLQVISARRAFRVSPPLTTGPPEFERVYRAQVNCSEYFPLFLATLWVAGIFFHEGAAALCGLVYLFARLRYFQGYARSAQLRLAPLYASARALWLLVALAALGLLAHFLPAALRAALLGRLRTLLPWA
Assay: LTC4 synthase in vitro assay (LTA4 to LTC4, HTRF detection)
Assay type: biochemical
Conditions: for inhibition at 10 µM: 5 min, total concentration of title compound in the assay 10 μM
In short: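 Purified recombinant human LTC4 synthase expressed in Pichia (0.5 μg/mL total protein) was preincubated with inhibitor at 10 μM final for 10 min at room temperature in PBS pH 7.4 with 5 mM GSH. LTA4 was then added at 2.5 μM final, and after 5 min at room temperature LTC4 was detected by HTRF.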

IC50	inhibition at 10 µM	SMILES
257 nM		CN(c1ccc(Cl)cc1)c1ccc(C(=O)c2ccc(C(=O)Cc3ccccc3)c(C(=O)O)c2)nc1 [5:16, 5-{5-[(4-Chlorophenyl)(methyl)amino]picolinoyl}-2-phenylacetylbenzoic acid]
90 nM		CCCCCCC(=O)c1ccc(C(=O)c2ccc(N(C)c3ccc(Cl)cc3)cn2)cc1C(=O)O [5:17, 5-{5-[(4-Chlorophenyl)(methyl)amino]picolinoyl}-2-heptanoylbenzoic acid]
246 nM		CN(c1ccc(Cl)cc1)c1ccc(C(=O)c2ccc(C(=O)C3CCCCC3)c(C(=O)O)c2)nc1 [5:18, 5-{5-[(4-Chlorophenyl)(methyl)amino]picolinoyl}-2-cyclohexylcarbonylbenzoic acid]
32 nM		CN(c1ccc(Cl)cc1)c1ccc(C(=O)c2ccc(C(=O)C3(c4ccccc4)CC3)c(C(=O)O)c2)nc1 [5:19]
104 nM		CN(c1ccc(Cl)cc1)c1ccc(C(=O)c2ccc(C(=O)c3cccs3)c(C(=O)O)c2)nc1 [5:20, 5-{5-[(4-Chlorophenyl)(methyl)amino]picolinoyl}-2-(2-thienylcarbonyl)benzoic acid]
250 nM		Cc1ccc(N(C)c2ccc(C(=O)c3ccc(C(=O)c4ccccc4)c(C(=O)O)c3)nc2)cc1 [5:21]
442 nM		Cc1cc(Cl)ccc1N(C)c1ccc(C(=O)c2ccc(C(=O)c3ccccc3)c(C(=O)O)c2)nc1 [5:22, 2-Benzoyl-5-{5-[(4-chloro-2-methylphenyl)(methyl)amino]picolinoyl}benzoic acid]
184 nM		CCc1ccc(N(C)c2ccc(C(=O)c3ccc(C(=O)c4ccccc4)c(C(=O)O)c3)nc2)cc1 [5:23]
77 nM		CN(c1ccc(Cl)cc1)c1ccc(C(=O)c2ccc(C(=O)c3ccc4c(c3)OCO4)c(C(=O)O)c2)nc1 [5:24, 5-{5-[(4-Chlorophenyl)(methyl)amino]picolinoyl}-2-(3,4-methylenedioxy-benzoyl)benzoic acid]
860 nM		CN(c1ccc(Cl)cc1)c1ccc(C(=O)c2ccc(C(=O)C3CCCO3)c(C(=O)O)c2)nc1 (stereo not drawn) [5:25, 5-{5-[(4-Chlorophenyl)(methyl)amino]picolinoyl}-2-tetrahydrofuran-2-carbonylbenzoic acid]
27 nM		CN(c1ccc(Cl)cc1)c1ccc(C(=O)c2ccc(C(=O)c3ccc4c(c3)OCCO4)c(C(=O)O)c2)nc1 [5:26]
54 nM		CN(c1ccc(Cl)cc1)c1ccc(C(=O)c2ccc(C(=O)c3cccc(C(F)(F)F)c3)c(C(=O)O)c2)nc1 [5:27]
60 nM		CN(c1ccc(Cl)cc1)c1ccc(C(=O)c2ccc(C(=O)c3cccc(OC(F)(F)F)c3)c(C(=O)O)c2)nc1 [5:28]
245 nM		CN(c1ccc(Cl)cc1)c1ccc(C(=O)c2ccc(C(=O)c3ccccc3C(F)(F)F)c(C(=O)O)c2)nc1 [5:29]
667 nM	94%	CN(c1ccc(Cl)cc1)c1ccc(C(=O)c2ccc(Oc3ccccc3)c(C(=O)O)c2)cn1 [6:1]
630 nM	96%	CN(c1ccc(Cl)cc1)c1ccc(C(=O)c2ccc(Oc3ccc(F)c(F)c3)c(C(=O)O)c2)cn1 [6:2]
1110 nM		O=C(c1ccc(Oc2ccccc2)c(C(=O)O)c1)c1ccc(-c2cccc(Cl)c2)cn1 [7:1, 5-[5-(3-Chlorophenyl)picolinoyl]-2-phenoxybenzoic acid]
752 nM		O=C(c1ccc(Oc2ccccc2)c(C(=O)O)c1)c1ccc(-c2ccc(Cl)cc2)cn1 [7:2, 5-[5-(4-Chlorophenyl)picolinoyl]-2-phenoxybenzoic acid]

IC50	inhibition at 10 µM	SMILES
700 nM		O=C(c1ccc(Oc2ccccc2)c(C(=O)O)c1)c1ccc(-c2cccc(C(F)(F)F)c2)cn1 [7:3, 2-Phenoxy-5-[5-(3-trifluoromethylphenyl)picolinoyl]benzoic acid]
82 nM	99%	O=C(c1ccc(N(CC2CC2)c2ccc(Cl)cc2)cc1)c1cc(C(=O)O)c(Oc2ccccc2)cn1 [8:1, 2-{4-[(4-Chlorophenyl)(cyclopropylmethyl)amino]benzoyl}-5-phenoxyisonicotinic acid]
302 nM	99%	CN(c1ccc(Cl)cc1)c1ccc(C(=O)c2cc(C(=O)O)c(Oc3ccccc3)cn2)cc1 [8:2]
742 nM	94%	CN(c1ccc(Cl)cc1)c1ccc(C(=O)c2ccc(Oc3ccccc3)c(C(=O)O)n2)cc1 [9:1, 6-{4-[(4-Chlorophenyl)(methyl)amino]benzoyl}-3-phenoxypicolinic acid]
834 nM	94%	CN(c1ccc(Cl)cc1)c1ccc(C(=O)c2ccc(Oc3ccc(F)c(F)c3)c(C(=O)O)n2)cc1 [9:2]
154 nM	97%	CN(c1ccc(Cl)cc1)c1cnc(C(=O)c2ccc(Oc3ccc(F)cc3)c(C(=O)O)c2)nc1 [10:1, 5-{5-[(4-Chlorophenyl)(methyl)amino]pyrimidine-2-carbonyl}-2-(4-fluorophenoxy)-benzoic acid]
300 nM		CN(c1ccc(Cl)cc1)c1cnc(C(=O)c2ccc(Oc3ccccc3)c(C(=O)O)c2)nc1 [10:3, 5-{5-[(4-Chlorophenyl)(methyl)amino]pyrimidine-2-carbonyl}-2-phenoxybenzoic acid]
132 nM		O=C(c1ccc(Oc2ccccc2)c(C(=O)O)c1)c1ncc(N(CC2CC2)c2ccc(Cl)cc2)cn1 [10:4, 5-{5-[(4-Chlorophenyl)(cyclopropylmethyl)amino]pyrimidine-2-carbonyl}-2-phenoxybenzoic acid]
119 nM		O=C(c1ccc(Oc2ccccc2)c(C(=O)O)c1)c1ncc(N(Cc2ccccc2)c2ccc(Cl)cc2)cn1 [10:5, 5-{5-[(Benzyl)(4-chlorophenyl)amino]pyrimidine-2-carbonyl}-2-phenoxybenzoic acid]
143 nM		O=C(c1ccc(Oc2ccccc2)c(C(=O)O)c1)c1ccc(OCc2cccc(Cl)c2)cn1 [11:1, 5-[5-(3-Chlorobenzyloxy)picolinoyl]-2-phenoxybenzoic acid]
345 nM		COc1ccc(Oc2ccc(C(=O)c3ccc(OCc4cccc(Cl)c4)cn3)cc2C(=O)O)cc1 [11:2, 5-[5-(3-Chlorobenzyloxy)picolinoyl]-2-(4-methoxyphenoxy)benzoic acid]
181 nM		O=C(c1ccc(Oc2ccccc2)c(C(=O)O)c1)c1ccc(OCc2cccc(C(F)(F)F)c2)cn1 [11:5, 2-Phenoxy-5-[5-(3-trifluoromethylbenzyloxy)picolinoyl]benzoic acid]
351 nM		O=C(c1ccc(Oc2ccccc2)c(C(=O)O)c1)c1ccc(OCc2ccc(C(F)(F)F)cc2)cn1 [11:6, 2-Phenoxy-5-[5-(4-trifluoromethylbenzyloxy)picolinoyl]benzoic acid]
931 nM		O=C(c1ccc(Oc2ccccc2)c(C(=O)O)c1)c1ccc(OCc2ccccc2C(F)(F)F)cn1 [11:7, 2-Phenoxy-5-[5-(2-trifluoromethylbenzyloxy)picolinoyl]benzoic acid]
126 nM		O=C(c1ccc(Oc2ccccc2)c(C(=O)O)c1)c1ccc(OCc2cccc(Br)c2)cn1 [11:8, 5-[5-(3-Bromobenzyloxy)picolinoyl]-2-phenoxybenzoic acid]
69 nM		O=C(c1ccc(Oc2ccccc2)c(C(=O)O)c1)c1ccc(OCc2ccc(Cl)c(Cl)c2)cn1 [11:9, 5-[5-(3,4-Dichlorobenzyloxy)picolinoyl]-2-phenoxybenzoic acid]
380 nM		COc1ccc(COc2ccc(C(=O)c3ccc(N(C)c4ccc(Cl)cc4)cn3)cc2C(=O)O)cc1 [12:1, 5-{5-[(4-Chlorophenyl)(methyl)amino]picolinoyl}-2-(4-methoxybenzyloxy)benzoic acid]
